{"source": "patent US5026728A", "about": "“Treatment of arthritis and inflammation using N,N-dimethylglycine” (Foodscience Corporation, priority 1989, dated 1991)", "key": {"B cells [1]": {"tested_on": "B cells", "conditions": "early research; cited from earlier work"}, "[2]": {"conditions": "greyhounds given DMG; cited from earlier work"}, "[3]": {"conditions": "animals under extreme stress; cited from earlier work"}, "[4]": {"tested_on": "arthritis (Type II collagen-induced)", "assay": "Type II collagen-induced arthritis in rats, arthritic swelling of hindpaws (Example 1)", "type": "in vivo, Female Wistar outbred rats", "design": "key to rats which showed arthritic swelling (mark): *: Indicates rats which showed arthritic swelling", "conditions": "100 mg/kg/day i.p.", "procedure": "(§1) Female Wistar outbred rats (age 10-12 weeks) were obtained from Charles River Breeding Laboratories Inc., Wilmington, Mass.) housed in metal cages and fed standard rodent chow with water ad libitum.\n(§2) Immunization was performed using the method outlined by Stuart et al. (Stuart et al., supra). Type II collagen was dissolved in 0.01N acetic acid at a concentration of 2 mg/ml stirring overnight at 4° C. An emulsion was made using incomplete Freund's adjuvant (Difco) and each collagen solution at a ratio of 6:4. Eighteen Wistar rats were given 0.1 ml of a cold emulsion of collagen II by intradermal injection of the left hind footpad and booster injections in the tail at one week and again on day 36.\n(§3) Dimethylglycine mixed in distilled water was administered intraperitoneally to half of the rats in the study at a dosage rate of 100 mg/kg body weight per day, beginning on the day of collagen immunization. Control rats were injected with only distilled water. Rats were sacrificed at the time of the occurrence of arthritis and were bled by cardiac puncture. Rats surviving at day 30 were bled by the tail vein and were bled again at the end of the study (day 51).\nAnimals in both groups were observed daily for the onset of arthritis. Swelling of the hindpaws was quantitated by measuring the thickness of the ankle from medial to lateral malleolus with a caliper (as done by Trentham et al. supra)."}, "gouty arthritis": {"tested_on": "gouty arthritis", "assay": "Treatment of gouty arthritis in humans (Example 4)", "type": "in vivo, human", "conditions": "250 mg t.i.d.", "procedure": "DMG was administered to two patients suffering from gouty arthritis, at a dosage of 250 mg t.i.d. over a three week period."}, "T cells and macrophages [5]": {"tested_on": "T cells and macrophages", "conditions": "research on humans; cited from earlier work"}, "Type II collagen": {"tested_on": "Type II collagen", "assay": "ELISA immunoassay of antibody to Type II collagen in sera of collagen-immunized rats", "type": "in vivo, Female Wistar outbred rats", "procedure": "as §1, §2, §3\nSera were obtained by cardiac puncture on the day arthritis developed or at the end of the study (day 51). An enzyme-linked immunoassay (ELISA) technique adapted from the methods described by Stuart et al. supra was used to measure antibody titres.\nFlat bottom 96 well microtitre plates (Corning) were coated with collagen as follows: Collagen was dissolved in 0.4 ionic strength phosphate buffer, pH 7.6 by stirring overnight at 4° C. The collagen concentration was adjusted to 5 μg/ml determined by the Lowry method (Lowry, O. et al., J. Biol. Chem. 193, 265 [1951]). Each well received 100 μl of collagen solution and the plates were incubated at 4° C. overnight. The coating solution was removed by inverting the plate and sharply snapping the wrist to remove remaining droplets. To reduce nonspecific absorption a blocker of phosphate-buffered saline (PBS) (pH 7.4) containing 0.5% ovalbumin (Grade V), Sigma Chemical Co., St. Louis, Mo.) was added and incubated for 1 hr. The plates were washed with PBS-Tween (containing […]) three times and used immediately. The sera were diluted with PBS-Tween containing 0.5% ovalbumin and aliquots of 100 μl were added to the Type II collagen-coatad microtitre plates. The plates were incubated at 4° C. overnight and washed three times with PBS-Tween. One hundred μl of a 1:3000 dilution of rabbit anti-rat IgG peroxidase conjugate (Sigma) was added and incubated for 4 hr at room temperature. Excess conjugate was removed by washing three times with PBS-Tween and the amount of conjugate bound was determined by adding orthophenylenediamine (OPD) (Sigma Chemical Co.) as a substrate. The substrate was prepared by adding 40 mg of OPD to […] of 0.224M citric acid 0.05M dibasic sodium phosphate pH 5.0 and adding 400 μl of 3% hydrogen peroxide. After incubation with the substrate for 20 min the microtitre plates were read for absorbance at 490 nm using a Mini Reader II (Dynatech)."}, "[6]": {"tested_on": "arthritis (Type II collagen-induced)", "assay": "Prevention of arthritis in collagen-injected rats (Example 2)", "type": "in vivo", "procedure": "Eighteen rats were divided into two groups. Nine animals were injected i.p. with DMG (100 mg/kg body weight) daily, starting on day 14 prior to administration of collagen II, and continuing for 30 days after collagen II injection or until severe arthritic lesions were observed, if earlier. The remaining nine rats were similarly injected i.p. with sterile water. In this experiment, as compared with Example 1, the source of the collagen II was changed from a commercial preparation (Chemicon Corp., Temecula, Calif.) to a fresh preparation prepared by the process according to Trentham et al., 1977, supra."}, "interferon [7]": {"tested_on": "interferon", "conditions": "cited from earlier work"}, "[8]": {"conditions": "high-dose rats; cited from earlier work"}, "lactic acid": {"tested_on": "lactic acid", "conditions": "intravenous, severe surgical stress; cited from earlier work"}, "[9]": {"tested_on": "hybridoma antibody producing cells", "conditions": "in vitro cell cultures; cited from earlier work"}, "rheumatoid arthritis": {"tested_on": "rheumatoid arthritis", "assay": "Treatment of rheumatoid arthritis in humans (Example 3)", "type": "in vivo, human", "procedure": "Three patients, diagnosed as having rheumatoid arthritis in one or both knees with symptoms of acute pain, inflammation, joint tenderness and morning stiffness, were treated orally with 500 mg of DMG taken four times daily. The test period lasted for six weeks, during which time no other antiinflammatory drugs were taken."}, "lymphocytes [10]": {"tested_on": "lymphocytes", "conditions": "lymphocytes from DMG-fed animals; cited from earlier work"}, "lymphocytes [11]": {"tested_on": "lymphocytes", "conditions": "sickle cell disease and diabetes patients; three lectins; cited from earlier work"}, "interferon [12]": {"tested_on": "interferon", "conditions": "cited from earlier work", "remark": "listed apart in the source"}, "B cells [13]": {"tested_on": "B cells", "conditions": "research on humans; cited from earlier work"}, "[14]": {"conditions": "cited from earlier work"}, "[15]": {"conditions": "human tests; cited from earlier work"}, "T cells and macrophages [16]": {"tested_on": "T cells and macrophages", "conditions": "early research; cited from earlier work"}, "[17]": {"tested_on": "chronic obstructive pulmonary disease (heaves)", "assay": "Treatment of chronic obstructive pulmonary disease in horses (Example 5)", "type": "in vivo, horses (standardbred)", "procedure": "Three standardbred horses, ages 3 to 7 years, were diagnosed as having chronic obstructive pulmonary disease, also known as equine asthma or the heaves. Clinical signs included frequent coughing, nasal discharge, increased respiratory rate and wheezing in the chest area. The horses were treated orally with 1.5 g of DMG hydrochloride twice daily for ten days."}, "[18]": {"conditions": "antibody titre, individual rat, DMG 100 mg/kg/day i.p., absorbance at 490 nm"}, "[19]": {"conditions": "mean, DMG-treated rats, 100 mg/kg/day i.p."}, "[20]": {"conditions": "after 5 days, 1.5 g orally twice daily"}}, "note": "Several values for one entry are separate records, joined by “and”; a condition that tells them apart may be missing. Equal values may be shown once. Entries after “also recorded” stand apart in the source; their conditions may differ. Where a name gives a salt, the structure may show the parent alone. Read-outs that look alike come from different tables or passages of the source."}
{"smiles": "CN(C)CC(=O)O", "note": "[DMG, N,N-dimethylglycine]", "values": [{"measurement": "antibody responses of B cells (humoral branch)", "setting": "B cells [1]", "value": "much higher antibody responses"}, {"measurement": "racing performance", "setting": "[2]", "value": "improvement in racing performance"}, {"measurement": "recovery after races", "setting": "[2]", "value": "better recovery after races with less fatigue or muscle stiffness"}, {"measurement": "lactic acid levels", "setting": "[3]", "value": "decrease lactic acid levels"}, {"measurement": "oxygen utilization", "setting": "[3]", "value": "increase oxygen utilization"}, {"measurement": "arthritic swellings of the hindpaws compared with non-DMG-treated group", "setting": "[4]; beginning on the day of collagen immunization", "value": "did not develop to the same extent the arthritic swellings of the hindpaws"}, {"measurement": "rats which showed arthritic swelling (mark)", "setting": "[4]; individual rat", "value": "*"}, {"measurement": "time after which benefits were noted", "setting": "gouty arthritis", "value": "7 to 10", "unit": "days"}, {"measurement": "time to maximal benefits", "setting": "gouty arthritis", "value": "maximal after two weeks"}, {"measurement": "pain, redness and inflammation", "setting": "gouty arthritis; three weeks", "value": "Less pain, redness and inflammation were noted"}, {"measurement": "activity of T cells and macrophages", "setting": "T cells and macrophages [5]", "value": "enhances the activity of T cells and macrophages"}, {"measurement": "antibody titres compared with control animals", "setting": "Type II collagen; 100 mg/kg/day i.p., rats immunized with Type II collagen", "value": "developed higher antibody titres than control animals"}, {"measurement": "ELISA Reading, serum from day 17", "setting": "Type II collagen; [18]", "value": ".78"}, {"measurement": "ELISA Reading, serum from day 30", "setting": "Type II collagen; [18]", "value": ".47 and .00 and .28 and .32 and .33 and .20 and .17 and .48"}, {"measurement": "ELISA Reading, serum from day 51", "setting": "Type II collagen; [18]", "value": ".60 and .88 and .18 and .35 and .90 and .56 and .64"}, {"measurement": "Mean ELISA Reading, serum from day 17", "setting": "Type II collagen; [19]", "value": ".78"}, {"measurement": "Mean ELISA Reading, serum from day 30", "setting": "Type II collagen; [19]", "value": ".28"}, {"measurement": "Mean ELISA Reading, serum from day 51", "setting": "Type II collagen; [19]", "value": ".54"}, {"measurement": "animals developing characteristic inflammation and swelling, of nine", "setting": "[6]; 100 mg/kg i.p. daily from day 14 before collagen II, all control animals developed arthritis", "value": "only two developed the characteristic inflammation and swelling to any extent"}, {"measurement": "development of inflammation and swelling associated with Type II collagen-induced arthritis", "setting": "[6]; 100 mg/kg/day, starting on day 14 prior to injection", "value": "either does not develop to the same extent, or does not develop at all"}, {"measurement": "interferon production", "setting": "interferon [7]", "value": "effective in doubling interferon production; also recorded: will increase interferon production"}, {"measurement": "adaptation to hypoxia", "setting": "[8]", "value": "better adaptation to hypoxia"}, {"measurement": "lactic acid production", "setting": "lactic acid", "value": "decreased lactic acid production"}, {"measurement": "production of antibodies", "setting": "[9]", "value": "increases the production of antibodies"}, {"measurement": "fatigue and night pain", "setting": "rheumatoid arthritis; 500 mg orally four times daily", "value": "All three patients reported less fatigue and less night pain"}, {"measurement": "improvement in inflammation, pain and morning stiffness", "setting": "rheumatoid arthritis; after 21 days, 500 mg orally four times daily", "value": "two patients reported significant improvement in reduction of inflammation, pain and morning stiffness; also recorded: the third patient reported a lesser improvement"}, {"measurement": "additional improvement", "setting": "rheumatoid arthritis; last three weeks of therapy (six weeks)", "value": "Additional improvement was noted in all three patients"}, {"measurement": "lymphocyte activation / proliferation", "setting": "lymphocytes [10]", "value": "can stimulate the cellular immune system by lymphatic proliferation"}, {"measurement": "blast transformation activity of lymphocytes", "setting": "lymphocytes [11]", "value": "approximately doubled"}, {"measurement": "interferon level", "setting": "interferon [12]; primary response, DMG-fed, none detected in immunized controls", "value": "high levels of interferon was present"}, {"measurement": "interferon level", "setting": "interferon [12]; secondary response", "value": "Interferon was not present"}, {"measurement": "antibody responses of B cells", "setting": "B cells [13]", "value": "much higher antibody responses"}, {"measurement": "blood lactic acid level following training", "setting": "[14]; DMG in the diet", "value": "lower blood lactic acid level following training"}, {"measurement": "appetite, attitude and recovery from racing and training", "setting": "[14]; trainers' observation, versus controls", "value": "more aggressive, to have better appetites and attitudes and to recover faster from racing and training than the controls"}, {"measurement": "exhaustion time", "setting": "[15]", "value": "increase in exhaustion time"}, {"measurement": "immune response (antibody production and lymphocyte generation)", "setting": "[15]", "value": "enhancement of the body's immune response"}, {"measurement": "activity of T cells and macrophages (cellular immunity branch)", "setting": "T cells and macrophages [16]", "value": "potentiates the activity of T cells and macrophages"}, {"measurement": "effect on inflammatory condition, heaves in horses", "setting": "[17]; summary statement in description", "value": "demonstrated to reduce the inflammatory condition and to be an effective therapy for heaves in horses"}]}
{"smiles": "CN(C)CC(=O)O", "note": "[DMG-HCl]", "values": [{"measurement": "breathing and nasal discharge", "setting": "[17]; [20]", "value": "improved breathing and less nasal discharge"}, {"measurement": "symptomatic relief", "setting": "[17]; [20]", "value": "All three horses showed symptomatic relief after 5 days"}, {"measurement": "clearing of air passages", "setting": "[17]; end of 10 days, 1.5 g orally twice daily", "value": "the air passages of all three horses had cleared"}]}
